Data from PubChem BioAssay AID1963970 (Molecular Pharmacology Branch, DTP, NCI, 2024).

System: 931267-113-T-J1-PDC multicell spheroid viability
Assay: Anticancer human tumor 931267-113-T-J1-PDC patient-derived colon adenocarcinoma cell line growth inhibition [PI3K]
Details: for IC50: curve of first compound; for viability, T/C: stronger effect = lower value; active = viability on the fitted dose curve at most 10% of control; inactive = the rest
Summary of the method: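 High-throughput combination screen: PI3K inhibitors crossed with targeted small molecules on complex spheroids of tumor cells, HUVEC and MSCs at 37 degrees C, 5% CO2. Top concentration was at or near clinical Cmax (otherwise 10 microM), with half-log decrements.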

[1] = second compound 0.00316 µM, first compound 0.0316 µM
[2] = second compound 0.00316 µM, first compound 0.1 µM
[3] = second compound 0.01 µM, first compound 0.0316 µM
[4] = second compound 0.01 µM, first compound 0.1 µM
[5] = second compound 0.0316 µM, first compound 0.0316 µM
[6] = second compound 0.0316 µM, first compound 0.1 µM
[7] = second compound 0.1 µM, first compound 0.0316 µM
[8] = second compound 0.1 µM, first compound 0.1 µM
[9] = second compound 0.316 µM, first compound 0.0316 µM
[10] = second compound 0.316 µM, first compound 0.1 µM
[11] = second compound 1 µM, first compound 0.0316 µM
[12] = second compound 1 µM, first compound 0.1 µM
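Also: viability read 7 days after compound addition.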

Cn1cnc2c(F)c(Nc3ccc(Br)cc3Cl)c(C(=O)NOCCO)cc21 + CC(Nc1ncnc2nc[nH]c12)c1cc2cccc(Cl)c2c(=O)n1-c1ccccc1
117 nM: IC50 (second compound 0.316 µM)
inactive: viability, T/C (second compound 0.0316 µM, first compound 0.00949 µM) 84% | viability, T/C (second compound 0.0316 µM, first compound 0.03 µM) 71.9% | viability, T/C (second compound 0.0316 µM, first compound 0.0949 µM) 51.7% | viability, T/C (second compound 0.0316 µM, first compound 0.3 µM) 38.4% | viability, T/C (second compound 0.0316 µM, first compound 0.949 µM) 23% | viability, T/C (second compound 0.0316 µM, first compound 3 µM) 12.8% | viability, T/C (second compound 0.1 µM, first compound 0.00949 µM) 89.1% | viability, T/C (second compound 0.1 µM, first compound 0.03 µM) 80.1% | viability, T/C (second compound 0.1 µM, first compound 0.0949 µM) 55.4% | viability, T/C (second compound 0.1 µM, first compound 0.3 µM) 33.1% | viability, T/C (second compound 0.1 µM, first compound 0.949 µM) 25.1% | viability, T/C (second compound 0.1 µM, first compound 3 µM) 13.6% | viability, T/C (second compound 0.316 µM, first compound 0.00949 µM) 92.1% | viability, T/C (second compound 0.316 µM, first compound 0.03 µM) 77.9% | viability, T/C (second compound 0.316 µM, first compound 0.0949 µM) 51.8% | viability, T/C (second compound 0.316 µM, first compound 0.3 µM) 33.4% | viability, T/C (second compound 0.316 µM, first compound 0.949 µM) 23.1% | viability, T/C (second compound 0.316 µM, first compound 3 µM) 12.9% | viability, T/C (second compound 1 µM, first compound 0.00949 µM) 88.8% | viability, T/C (second compound 1 µM, first compound 0.03 µM) 72% | viability, T/C (second compound 1 µM, first compound 0.0949 µM) 51.6% | viability, T/C (second compound 1 µM, first compound 0.3 µM) 32.3% | viability, T/C (second compound 1 µM, first compound 0.949 µM) 24.4% | viability, T/C (second compound 1 µM, first compound 3 µM) 10.6% | viability, T/C (second compound 3.16 µM, first compound 0.00949 µM) 74% | viability, T/C (second compound 3.16 µM, first compound 0.03 µM) 69.2% | viability, T/C (second compound 3.16 µM, first compound 0.0949 µM) 48.1% | viability, T/C (second compound 3.16 µM, first compound 0.3 µM) 31.9% | viability, T/C (second compound 3.16 µM, first compound 0.949 µM) 21.4% | viability, T/C (second compound 3.16 µM, first compound 3 µM) 11% | viability, T/C (second compound 10 µM, first compound 0.00949 µM) 79.2% | viability, T/C (second compound 10 µM, first compound 0.03 µM) 62.8% | viability, T/C (second compound 10 µM, first compound 0.0949 µM) 41% | viability, T/C (second compound 10 µM, first compound 0.3 µM) 29% | viability, T/C (second compound 10 µM, first compound 0.949 µM) 15.2%
61.6 nM: IC50 (second compound 10 µM)
123 nM: IC50 (second compound 0.0316 µM)
133 nM: IC50 (second compound 0.1 µM)
107 nM: IC50 (second compound 1 µM)
96.7 nM: IC50 (second compound 3.16 µM)
active: viability, T/C (second compound 10 µM, first compound 3 µM) 7.35%

CC1(C)CCC(CN2CCN(c3ccc(C(=O)NS(=O)(=O)c4ccc(NCC5CCOCC5)c([N+](=O)[O-])c4)c(Oc4cnc5[nH]ccc5c4)c3)CC2)=C(c2ccc(Cl)cc2)C1 + CC(Nc1ccc2c(c1)OCCn1cc(N3C(=O)OCC3C(F)F)nc1-2)C(N)=O
6330 nM: IC50 (second compound 0.01 µM)
4860 nM: IC50 (second compound 0.316 µM)
5560 nM: IC50 (second compound 0.0316 µM)
6160 nM: IC50 (second compound 0.00316 µM)
inactive: viability, T/C [1] 91.7% | viability, T/C [2] 102% | viability, T/C (second compound 0.00316 µM, first compound 0.316 µM) 105% | viability, T/C (second compound 0.00316 µM, first compound 1 µM) 106% | viability, T/C (second compound 0.00316 µM, first compound 3.16 µM) 94.3% | viability, T/C (second compound 0.00316 µM, first compound 10 µM) 17.5% | viability, T/C [3] 104% | viability, T/C [4] 98.5% | viability, T/C (second compound 0.01 µM, first compound 0.316 µM) 97.5% | viability, T/C (second compound 0.01 µM, first compound 1 µM) 107% | viability, T/C (second compound 0.01 µM, first compound 3.16 µM) 96.2% | viability, T/C (second compound 0.01 µM, first compound 10 µM) 19.3% | viability, T/C [5] 112% | viability, T/C [6] 104% | viability, T/C (second compound 0.0316 µM, first compound 0.316 µM) 95.8% | viability, T/C (second compound 0.0316 µM, first compound 1 µM) 91.4% | viability, T/C (second compound 0.0316 µM, first compound 3.16 µM) 87.4% | viability, T/C (second compound 0.0316 µM, first compound 10 µM) 14.5% | viability, T/C [7] 94.2% | viability, T/C [8] 88.2% | viability, T/C (second compound 0.1 µM, first compound 0.316 µM) 91.5% | viability, T/C (second compound 0.1 µM, first compound 1 µM) 97.9% | viability, T/C (second compound 0.1 µM, first compound 3.16 µM) 78.2% | viability, T/C (second compound 0.1 µM, first compound 10 µM) 13.7% | viability, T/C [9] 81.7% | viability, T/C [10] 89% | viability, T/C (second compound 0.316 µM, first compound 0.316 µM) 80.2% | viability, T/C (second compound 0.316 µM, first compound 1 µM) 75.4% | viability, T/C (second compound 0.316 µM, first compound 3.16 µM) 73% | viability, T/C (second compound 0.316 µM, first compound 10 µM) 13.6% | viability, T/C [11] 78.5% | viability, T/C [12] 77.1% | viability, T/C (second compound 1 µM, first compound 0.316 µM) 73.9% | viability, T/C (second compound 1 µM, first compound 1 µM) 69.7% | viability, T/C (second compound 1 µM, first compound 3.16 µM) 63.3% | viability, T/C (second compound 1 µM, first compound 10 µM) 14.1%
4210 nM: IC50 (second compound 1 µM)
5220 nM: IC50 (second compound 0.1 µM)

CC(C)n1nc(-c2ccc3oc(N)nc3c2)c2c(N)ncnc21 + CC(Nc1ccc2c(c1)OCCn1cc(N3C(=O)OCC3C(F)F)nc1-2)C(N)=O
> 100 nM: IC50 (second compound 0.01 µM)
80.1 nM: IC50 (second compound 0.00316 µM)
66.6 nM: IC50 (second compound 0.0316 µM)
60.7 nM: IC50 (second compound 0.1 µM)
inactive: viability, T/C (second compound 0.00316 µM, first compound 0.000316 µM) 94.6% | viability, T/C (second compound 0.00316 µM, first compound 0.001 µM) 98% | viability, T/C (second compound 0.00316 µM, first compound 0.00316 µM) 83% | viability, T/C (second compound 0.00316 µM, first compound 0.01 µM) 91.5% | viability, T/C [1] 80.2% | viability, T/C [2] 42.5% | viability, T/C (second compound 0.01 µM, first compound 0.000316 µM) 104% | viability, T/C (second compound 0.01 µM, first compound 0.001 µM) 101% | viability, T/C (second compound 0.01 µM, first compound 0.00316 µM) 86% | viability, T/C (second compound 0.01 µM, first compound 0.01 µM) 81.1% | viability, T/C [3] 68% | viability, T/C [4] 52.2% | viability, T/C (second compound 0.0316 µM, first compound 0.000316 µM) 97.7% | viability, T/C (second compound 0.0316 µM, first compound 0.001 µM) 104% | viability, T/C (second compound 0.0316 µM, first compound 0.00316 µM) 101% | viability, T/C (second compound 0.0316 µM, first compound 0.01 µM) 90% | viability, T/C [5] 71% | viability, T/C [6] 38.8% | viability, T/C (second compound 0.1 µM, first compound 0.000316 µM) 89.4% | viability, T/C (second compound 0.1 µM, first compound 0.001 µM) 83.8% | viability, T/C (second compound 0.1 µM, first compound 0.00316 µM) 93% | viability, T/C (second compound 0.1 µM, first compound 0.01 µM) 77.7% | viability, T/C [7] 64.1% | viability, T/C [8] 39.6% | viability, T/C (second compound 0.316 µM, first compound 0.000316 µM) 82.7% | viability, T/C (second compound 0.316 µM, first compound 0.001 µM) 82.7% | viability, T/C (second compound 0.316 µM, first compound 0.00316 µM) 69% | viability, T/C (second compound 0.316 µM, first compound 0.01 µM) 70.8% | viability, T/C [9] 59.2% | viability, T/C [10] 36.7% | viability, T/C (second compound 1 µM, first compound 0.000316 µM) 72.5% | viability, T/C (second compound 1 µM, first compound 0.001 µM) 69.3% | viability, T/C (second compound 1 µM, first compound 0.00316 µM) 70.6% | viability, T/C (second compound 1 µM, first compound 0.01 µM) 59% | viability, T/C [11] 55.9% | viability, T/C [12] 31.8%
48.7 nM: IC50 (second compound 0.316 µM)
37.7 nM: IC50 (second compound 1 µM)
